One test deals with T1, opioid δ receptor (Homo sapiens, UniProt P41143).
T1 construct: expressed in transfected cells; host or cells: CHO cells
Nature of the test: Opioid receptor functional test (Lance Ultra cAMP Kit), δ receptor agonist activity. As to conditions: for Emax: read-out: δ Receptor Emax. Format: cell-based. As to the method:
(§1) Functional activities of the compounds of the present invention for the μ, […], and κ opioid receptors were investigated.
(§2) The test was performed according to a prescribed method by using Lance Ultra cAMP Kit (Perkin-Elmer). The agonist activities were evaluated as follows. The CHO cells expressing each opioid receptor (μ, δ, or κ) and a test compound were reacted in an assay buffer (1×HBSS, […], pH 7.4, […] IBMX (isobutylmethylxanthine), 7.5% BSA) for 30 minutes in the presence of 10 μM forskolin. Then, the cAMP detection reagent included in the kit was added, and after 1 hour, time-resolved fluorescence measurements were performed by using the EnVision plate reader (Perkin-Elmer). A dose-responce curve of the test compound was obtained from fluorescence values measured at 665 nm, and EC50 value and Emax value were calculated. The Emax value was calculated as a ratio of the maximum responce of the test compound with respect to the maximum responce of each control agent (SNC80 for δ, DAMGO for μ, U-69593 for κ) taken as 100%.
(§3) 1): Hydrochloride was used.

Another test deals with T2, opioid μ receptor (Homo sapiens, UniProt P35372).
T2 construct: expressed in transfected cells; host or cells: CHO cells
Nature of the test: Opioid receptor functional test (Lance Ultra cAMP Kit), μ receptor agonist activity. Conditions: maximum concentration (10 μM), reaction did not reach the maximum, EC50 N.C.; relative to DAMGO; hydrochloride was used; read-out: μ Receptor responce rate at the maximum concentration (reference value). Format: cell-based. How it is done:
as §1, §2, §3

The target of another test is T3, opioid κ receptor (Homo sapiens, UniProt P41145).
T3 construct: expressed in transfected cells; host or cells: CHO cells
The test can be described thus: Opioid receptor functional test (Lance Ultra cAMP Kit), κ receptor agonist activity. Conditions: hydrochloride was used; for Emax at 10 µM: maximum concentration (10 μM), reaction did not reach the maximum, EC50 N.C., relative to U-69593, read-out: κ Receptor responce rate at the maximum concentration (reference value). Format: cell-based. How it is done:
as §1, §2, §3

In a further test the test system is ICR male mice. The test can be described thus: Analgesic activity (acetic acid writhing method). Format: in vivo. Conditions: Mus musculus, sc; 3 mg/kg subcutaneous, 0.6% acetic acid i.p., writhing inhibition rate vs solvent group; hydrochloride was used; read-out: Inhibitory activities against writhing. How it is done:
ICR male mice were used as groups each consisting of eight mice. Twenty minutes after the subcutaneous administration of a test compound (3 mg/kg), a 0.6% aqueous solution of acetic acid was intraperitoneally administered (0.1 mL/10 g body weight), and from the point 5 minutes after the administration, number of writhing observed over 20 minutes was counted. The analgesic activity was evaluated on the basis of the writhing inhibition rate (% inhibition) of the test compound administration group with respect to the writhing number of the solvent administration group.
1): Hydrochloride was used. 2): The evaluation results of the inhibitory activities against writhing were classified on the basis of the inhibition rate as follows. ≧90%, +++; 70≦%<90, ++; 50≦%<70, +
For orientation: An intraperitoneal irritant provokes the stretching counted in writhing tests.

The mark [1] stands for this setting: CHO cells expressing δ opioid receptor, 10 μM forskolin, cAMP, hydrochloride was used, read-out: δ Receptor EC50 value.
Setting [2] is: maximum response relative to SNC80 taken as 100%, hydrochloride was used.

Where two headings read alike, the source gives them in different places.

T3 sequence (P41145 whole entry): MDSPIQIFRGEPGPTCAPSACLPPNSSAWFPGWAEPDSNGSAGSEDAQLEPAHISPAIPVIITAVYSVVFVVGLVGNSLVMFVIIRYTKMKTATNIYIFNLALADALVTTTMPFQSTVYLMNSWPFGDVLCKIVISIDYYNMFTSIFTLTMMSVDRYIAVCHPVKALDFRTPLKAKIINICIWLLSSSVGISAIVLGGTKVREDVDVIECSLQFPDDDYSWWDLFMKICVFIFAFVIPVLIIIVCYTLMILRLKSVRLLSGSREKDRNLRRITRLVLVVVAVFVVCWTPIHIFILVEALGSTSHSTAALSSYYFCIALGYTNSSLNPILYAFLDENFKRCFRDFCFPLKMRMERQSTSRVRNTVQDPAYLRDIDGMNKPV
T1 sequence (P41143 whole entry): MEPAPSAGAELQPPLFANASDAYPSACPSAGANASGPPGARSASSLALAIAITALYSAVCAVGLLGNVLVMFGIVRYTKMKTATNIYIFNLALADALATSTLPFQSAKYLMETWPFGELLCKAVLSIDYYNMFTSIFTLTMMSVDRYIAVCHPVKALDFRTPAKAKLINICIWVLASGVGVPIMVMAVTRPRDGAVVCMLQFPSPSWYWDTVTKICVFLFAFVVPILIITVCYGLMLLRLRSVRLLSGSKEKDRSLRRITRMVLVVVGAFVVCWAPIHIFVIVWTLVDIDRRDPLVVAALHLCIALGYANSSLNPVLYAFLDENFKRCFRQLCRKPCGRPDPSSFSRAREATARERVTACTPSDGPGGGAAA
T2 sequence (P35372 whole entry): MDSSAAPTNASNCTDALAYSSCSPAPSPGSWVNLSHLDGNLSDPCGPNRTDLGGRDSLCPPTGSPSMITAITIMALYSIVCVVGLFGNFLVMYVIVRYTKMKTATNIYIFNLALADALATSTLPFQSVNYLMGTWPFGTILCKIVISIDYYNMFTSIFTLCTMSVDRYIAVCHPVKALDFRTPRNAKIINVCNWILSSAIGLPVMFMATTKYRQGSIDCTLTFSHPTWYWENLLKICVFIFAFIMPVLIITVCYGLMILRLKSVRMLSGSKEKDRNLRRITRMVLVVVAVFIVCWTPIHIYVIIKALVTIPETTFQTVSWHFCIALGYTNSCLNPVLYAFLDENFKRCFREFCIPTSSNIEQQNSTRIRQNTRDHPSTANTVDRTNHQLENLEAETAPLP

Turning to `CC(C)NC(=O)N1C[C@H]2CC34CCC1C2C31CCN(CC2CC2)C4Cc2ccc(O)cc21` (stereo partly shown) [Compound 159], the EC50 at opioid δ receptor (setting [1]) is less than 1 nM; on opioid κ receptor (CHO cells expressing κ opioid receptor, 10 μM forskolin, cAMP, read-out: κ Receptor EC50 value) it was less than 1 nM. Moreover, the Emax at opioid δ receptor (setting [2]) worked out at 76%; at opioid κ receptor (maximum response relative to U-69593 taken as 100%, read-out: κ Receptor Emax) it was 37%. For the same compound, on opioid μ receptor, the Emax at 10 µM was 2.8%. The inhibition in vivo at 3 mg/kg with ICR male mice was in the range of 70 to 90%.

Regarding `O=C(c1ccccc1)N1C[C@H]2C[C@@]34CC[C@@H]1[C@@H]2[C@@]31CCN(CC2CC2)[C@@H]4Cc2ccc(O)cc21` [Compound 78, [(1S,3aR,5aS,6R,11bR,11cS)-14-(cyclopropylmethyl)-10-hydroxy-1,2,3a,4,5,6,7,11c-octahydro-3H-6,11b-(iminoethano)-1,5a-methanonaphtho[1,2-e]indol-3-yl](phenyl)methanone], on opioid δ receptor, the EC50 was less than 1 nM and the Emax was 83%. Further, at opioid μ receptor, the Emax at 10 µM turned out to be 4.7%. Also, the Emax at 10 µM on opioid κ receptor came to 5.5%. In addition, the inhibition in vivo at 3 mg/kg with ICR male mice lay within 50 to 70%.

In the case of `O=C(c1cccc(Cl)c1)N1C[C@H]2C[C@@]34CC[C@@H]1[C@@H]2[C@@]31CCN(CC2CC2)[C@@H]4Cc2ccc(O)cc21` [Compound 79, (3-chlorophenyl)[(1S,3aR,5aS,6R,11bR,11cS)-14-(cyclopropylmethyl)-10-hydroxy-1,2,3a,4,5,6,7,11c-octahydro-3H-6,11b-(iminoethano)-1,5a-methanonaphtho[1,2-e]indol-3-yl]methanone], the EC50 on opioid δ receptor (setting [1]) was less than 1 nM. On opioid δ receptor (setting [2]), the Emax is 75%. In addition, the Emax at 10 µM came out at 8.8% on opioid μ receptor and 9.6% on opioid κ receptor. Also, in the test with ICR male mice, the inhibition in vivo at 3 mg/kg lay within 70 to 90%.

Broadly, the EC50 is the concentration giving half of the maximal effect.

Source of the values: US8952030B2, “Morphinan derivative” (priority 2011, dated 2015).
